Results from patent publication US20180370927A1, “MICROBIOCIDAL OXADIAZOLE DERIVATIVES” (SYNGENTA PARTICIPATIONS AG, priority 2015, published 2018).

Legend:
[1] = system: Glomerella lacenarium (Colletotrichum lacenarium); test: Glomerella lacenarium (Colletotrichum lacenarium) liquid culture / cucumber / preventative (anthracnose); type: cell-based; details: 20 ppm in the applied formulation, liquid culture in PDB, 24° C., 3 to 4 days after application, read-out: disease control (inhibition of growth, photometric) compared to untreated control
Method in brief: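 At 20 ppm in the applied formulation, compounds were mixed with fungal spores in potato dextrose broth and held at 24° C. After 3–4 days, photometric growth measurement gave percent antifungal activity relative to untreated control.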

[2] = system: Puccinia recondita f. Sp. Tritici; test: Puccinia recondita f. sp. tritici / wheat / leaf disc preventative (brown rust); type: in vivo; details: foliar, 200 ppm in the applied formulation, wheat leaf segments, preventative, assessed 7 to 9 days after application, read-out: disease control compared to untreated control leaf disks
Method in brief: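 Wheat cv. Kanzler leaf segments on agar sprayed with formulated compound in water, inoculated with rust spores 1 day later. Incubated at 19° C, 75% rh, 12 h light/12 h dark; percent disease control versus untreated scored 7 to 9 days after application; tested at 200 ppm.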

[3] = system: Puccinia recondita f. Sp. Tritici; test: Puccinia recondita f. sp. tritici / wheat / leaf disc curative (brown rust); type: in vivo; details: foliar, 200 ppm in the applied formulation, wheat leaf segments, curative (applied 1 day after inoculation), assessed 6 to 8 days after application, read-out: disease control compared to untreated control leaf disks
Method in brief: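 Curative treatment: formulated compound in water was applied 1 day post-inoculation to spore-inoculated wheat cv. Kanzler segments held on agar. Segments stayed at 19° C and 75% relative humidity (12 h photoperiod after application), and disease control relative to untreated checks was assessed 6 to 8 days later.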

Phakopsora pachyrhizi = Phakopsora pachyrhizi / soybean / leaf disc preventative (Asian soybean rust); type: in vivo; details: foliar, 200 ppm in the applied formulation, soybean leaf disks, assessed 12 to 14 days after application, read-out: disease control compared to untreated control leaf disks
Method in brief: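 Soybean leaf discs on water agar were sprayed with formulated compound diluted in water, then inoculated one day later with spore suspension on the lower leaf surface. Held 24-36 h dark at 20° C., 75% RH, then 12 h light/day; percent disease control versus untreated scored 12 to 14 days after application.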

Uromyces viciae-Fabae = test: Uromyces viciae-fabae / field bean / leaf disc preventative (faba-bean rust); type: in vivo; details: foliar, 288 h, 100 ppm in the applied formulation, field bean leaf discs, assessed 12 days after application, read-out: disease control compared to untreated control leaf discs
Description: Leaf disks or leaf segments of various plant species are cut from plants grown in a greenhouse. The cut leaf disks or segments are placed in multiwell plates (24-well format) onto water agar. The leaf disks are sprayed with a test solution before (preventative) or after (curative) inoculation. Compounds to be tested are prepared as DMSO solutions (max. 10 mg/mL) which are diluted to the appropriate concentration with 0.025% Tween20 just before spraying. The inoculated leaf disks or segments are incubated under defined conditions (temperature, relative humidity, light, etc.) according to the respective test system. A single evaluation of disease level is carried out 3 to 14 days after inoculation, depending on the pathosystem. Percent disease control relative to the untreated check leaf disks or segments is then calculated.
Example 5: Fungicidal Activity Against Uromyces viciae-Fabael Field Bean/Leaf Disc Preventative (Faba-Bean Rust)
Field bean leaf discs are placed on water agar in multiwell plates (96-well format) and 10 μL of the formulated test compound diluted in acetone and a spreader pipetted onto the leaf disc. Two hours after application leaf discs are inoculated by spraying a spore suspension on the lower leaf surface. The leaf discs are incubated in a climate cabinet at 22° C. with 18 hour days and 70% relative humidity. The activity of a compound is assessed as percent disease control compared to untreated when an appropriate level of disease damage appears in untreated check leaf disks (12 days after application).
The following compounds at 100 ppm in the applied formulation give at least 80% disease control in this test when compared to untreated control leaf discs under the same conditions, which show extensive disease development.

Work on `CN(C)C(=O)C(=O)Nc1ccc(-c2noc(C(F)(F)F)n2)cc1` [Compound 4.1, N′,N′-dimethyl-N-[4-[5-(trifluoromethyl)-1,2,4-oxadiazol-3-yl]phenyl]oxamide] yielded an inhibition at 20 ppm [1] of no less than 80%, a pest or weed control at 200 ppm [2] of no less than 80% and a pest or weed control at 200 ppm [3] of no less than 80%. It also gave a pest or weed control at 200 ppm (Phakopsora pachyrhizi) of no less than 80%, a melting point of 127 to 130 °C and a pest or weed control at 100 ppm (Uromyces viciae-Fabae) of no less than 80%.

`CN(C)C(=O)C(=O)NCc1ccc(-c2noc(C(F)(F)F)n2)cc1` [Compound 4.2] gave an inhibition at 20 ppm [1] of no less than 80%, a pest or weed control at 200 ppm [2] of no less than 80% and a pest or weed control at 200 ppm [3] of no less than 80%. For the same molecule, the pest or weed control at 200 ppm (Phakopsora pachyrhizi) was no less than 80%, the melting point was 107 to 112 °C and the pest or weed control at 100 ppm (Uromyces viciae-Fabae) was no less than 80%.

`COCCNC(=O)C(=O)Nc1ccc(-c2noc(C(F)(F)F)n2)cc1` [Compound 4.4, N-(2-methoxyethyl)-N′-[4-[5-(trifluoromethyl)-1,2,4-oxadiazol-3-yl]phenyl]oxamide] gave a pest or weed control at 200 ppm [2] of no less than 80%, a pest or weed control at 200 ppm [3] of no less than 80% and a pest or weed control at 200 ppm (Phakopsora pachyrhizi) of no less than 80%. The melting point was 204 to 205 °C and the pest or weed control at 100 ppm (Uromyces viciae-Fabae) was no less than 80%.

For `CNC(=O)C(=O)Nc1ccc(-c2noc(C(F)(F)F)n2)cc1` [Compound 4.7, N-methyl-N′-[4-[5-(trifluoromethyl)-1,2,4-oxadiazol-3-yl]phenyl]oxamide], the pest or weed control at 200 ppm [2] was no less than 80%, the pest or weed control at 200 ppm [3] was no less than 80% and the pest or weed control at 200 ppm (Phakopsora pachyrhizi) was no less than 80%. For the same molecule, the melting point was 231 to 234 °C and the pest or weed control at 100 ppm (Uromyces viciae-Fabae) was no less than 80%.
